Laboratory results published in patent US7977403B2, “Antiseptic containing silicone elastomers” (Bayer Innovation GmbH, priority 2006, dated 2011).

Tested on: L 929 mouse fibroblast cells
Assay: Biocompatibility (cytotoxicity) test of material extract, DIN ISO 10993-5
Type: cell-based
Conditions: final concentration 1%, 48 h
Procedure: Biocompatibility Tests as Specified in DIN ISO 10993-5 (1999), EN 30993-5 (1994) The catheter shafts from Example 13 were for this purpose extracted non-sterile at 37° C. and 5% pCO2 in extraction medium (DMEM including antibiotics without FCS) for 24 h. The surface-volume ratio was 1 cm^2/ml of extraction medium. After completion of the extraction, the extraction medium was sterilized by filtration and supplemented with sterile FCS (final concentration: 10% FCS in the extraction medium). The FCS-supplemented extraction medium was put sterile on precultured L 929 mouse fibroblast cells and incubated at 37° C., 5% pCO2 for 48 h. The extract was subjected to quadruplicate parallel testing. Triton X 100 was added to the L929 cells used as toxic positive control (final concentration 1%). Cell culture medium served as non-toxic negative control. After the 48-hour incubation, the release of lactate dehydrogenase (LDH) in the cell culture supernatant was measured by a photometric method. The cells were then subjected to alkaline lysis and the protein content was measured by the Bradford method. The cells were fixed and stained with methylene blue to determine the cell count. After acidic extraction of the methylene blue, the dye content was ascertained by photometry and the extinction was compared with a standard curve in order to determine the cell count on the basis of the dye concentration. Results are shown at FIG. 12.

Triton X 100
Protein content relative to negative control (Bradford method): 6.8 % of the negative control value
Specific LDH activity increase compared with the negative control (cell culture supernatant): more than 31 fold
Cell count relative to negative control (methylene blue): 0.5 % of the negative control value
